Assay results as given in patent US11370757B2, “Photocleavable nitroindoline-based crosslinkers” (priority 2017, dated 2022).
*1 amine or outer side, *2 acyl side, *3 side chain or, on linkers, in order; H or OH if unused. Where a SMILES comes first, the peptide text is derived from it. [ ]: non-standard residue; d: D form. X1 = O=C(c1cc2c(c([N+](=O)[O-])c1)N([*:1])CC2)[*:2]; Hyp = O=C(O)[C@@H]1C[C@@H](O)CN1

Tests used:
[1] = Two-photon photolysis followed by fluorescence decay under a femtosecond laser at 710 nm; assay type: physicochemical; details: 710 nm femtosecond laser, 100 to 200 mW; film/gel on microscope slide; slope 2 = two-photon process
From the text: Two-photon microscope. The details of the in-housed developed two-photon microscope was previously described (Acosta et al., (2014) Biomed. Opt. Express 5, 3990-4001). In summary the light source is a mode-locked Ti:Sapphire laser (Maitai H P, 690-1040 nm, 100 fs, 80 MHz, Newport, Santa Clara, Calif.). The inventors have used 710 nm light to achieve two-photon excitation of N-acyl-nitroindoline. The home-built x-y scanner (polygon, galvanometer) can achieve 30 frames/s scanning rate. The laser power at the sample site is varied by rotating a half-wave plate in front of a polarizer. The fluorescence signal from the sample are detected in three spectral channels with photomultiplier tubes (PMTs): red (570-616 nm), green (500-550 nm), and blue (417-477 nm). […]
Several spots within the sample were irradiated under the two-photon microscope using 710 nm light with varying excitation laser output powers ranging from 100 to 200 mW with increments of 25 mW. […] Therefore, as the photolysis reaction progresses, the fluorescent peptide 1 is consumed, and consequentially a decrease in average fluorescence intensity at the irradiation site is observed. For each irradiated spot, a time series of fluorescence images was recorded at every minute to track the fluorescence intensity decay throughout the photo induced reaction process (FIG. 4a-4d). […]

[2] = system: human mesenchymal stem cells; assay type: cell-based
From the text: Culture and passaging of human Mesenchymal Stem Cells (MSC). Human adipose derived mesenchymal stem cells were obtained from Lonza at passage=3 (Lonza, Allendale, N.J., USA) and cultured according to manufacturer's recommendations. Certification was obtained and kept in file to ensure that the purchased human MSC (Lonza) was verified to be of the correct lineage and uncontaminated by other cell types or organisms. For the human MSC culture, a complete growth medium (Lonza) specifically MSCGM human Mesenchymal Stem Cell (HMSC) growth BulletKit™ Medium (Lonza) was used for maintaining the mesenchymal stem cells in an undifferentiated state. This medium is referred to as complete growth medium for HMSC here onwards. Prior to cell seeding, T-75 culture flasks were coated with 0.1% gelatin (Sigma Aldrich, St. Louis, Mo., USA) and incubated (37° C., 1 h). After this, the cell suspension in complete culture medium was transferred to a gelatin coated T-75 flask and incubated for 1 h (37° C., 5% CO2 and 95% RH). Prior to cell culture, the gelatin solution used for coating of the flasks was aspirated. After 70% confluency in culture was attained, cells were trypsizined and passaged for further experiments. […] Following this, cells were seeded atop this layer and cultured for 24 hours after which they were imaged using fluorescence microscopy (Zeiss Axiovision).

[3] = assay type: physicochemical
Experimental: Circular Dichroism (CD) of peptide 1 and thermal stability measurements. Far-UV CD studies were conducted to study the secondary structure of peptide 1. The measurements were carried out using a 20 μM solution of the lyophilized peptide 1 in 15 mM NaCl and 10 mM Na/K buffer (pH 6.8). The sample was placed into a quartz cuvette of 1 mm path length (Jasco) and heated from 20° C.-70° C. to characterize its thermal stability. At each temperature, the sample was equilibrated for 4 min prior measurement of the spectrum. CD scans were performed at a range from 196-240 nm with three accumulations of data at each temperature to improve the S/N ratio. Each spectrum underwent 11 point Savitzky-Golay smoothing to minimize high frequency noise. The experimentally estimated ellipticities (Gobs) were converted to mean molar ellipticity [θ] using the formula: [θ]=(θobs)/ncl where l is the path length of the cuvette; c is the concentration of the peptide, and n is the number of […] in the peptide.

| SMILES | slope of the regression line in the double-log plot of reaction rate vs. laser intensity [1] | cytotoxicity to cultured mesenchymal stem cells [2] | stability of the structure at physiological temperature [3] |
| --- | --- | --- | --- |
| O=C(NCC(=O)N1CCc2cc(Br)cc([N+](=O)[O-])c21)OCC1c2ccccc2-c2ccccc21 [compound 13, N-Fmoc-glycyl-5-bromo-7-nitroindoline] | 1.996 | – | – |
| NC(=O)CNC(=O)[C@@H]1CCCN1C(=O)[C@@H]1C[C@@H](O)CN1C(=O)CNC(=O)[C@@H]1CCCN1C(=O)[C@@H]1CCCN1C(=O)c1cc2c(c([N+](=O)[O-])c1)N(C(=O)CNC(=O)[C@@H]1CCCN1C(=O)[C@@H]1C[C@@H](O)CN1C(=O)CNC(=O)[C@@H]1CCCN1C(=O)[C@@H]1CCCN1C(=O)c1cc3c(c([N+](=O)[O-])c1)N(C(=O)CNC(=O)[C@@H]1CCCN1C(=O)[C@@H]1C[C@@H](O)CN1C(=O)CNC(=O)[C@@H]1CCCN1C(=O)[C@@H]1CCCN1C(=O)c1cc4c(c([N+](=O)[O-])c1)N(C(=O)CNC(=O)[C@@H]1CCCN1C(=O)[C@@H]1C[C@@H](O)CN1C(=O)CNC(=O)[C@@H]1CCCN1C(=O)[C@@H]1CCCN1C(=O)c1cc5c(c([N+](=O)[O-])c1)N(C(=O)CNC(=O)[C@@H]1CCCN1C(=O)[C@@H]1C[C@@H](O)CN1C(=O)CNC(=O)[C@@H]1CCCN1C(=O)[C@@H]1CCCN1)CC5)CC4)CC3)CC2 [peptide 1] (H-PPG[Hyp]PG[X1]PPG[Hyp]PG[X1]PPG[Hyp]PG[X1]PPG[Hyp]PG[X1]PPG[Hyp]PG-NH2) | – | not cytotoxic | very stable |
